For the assay, the target named is hPAD4 (Homo sapiens (Human), UniProt Q9UM07). The experiment in a line: hPAD4 AR assay (Table 2). The assay is classed as biochemical.
Setting [1] is: read-out: hPAD4 AR pIC50 (converted).

Molecules are shown by their SMILES. Like-named read-outs stand apart in the source and are kept apart here. Where only a bound is given, the exact number is not on record here.

Sequence of hPAD4 (Q9UM07 whole entry): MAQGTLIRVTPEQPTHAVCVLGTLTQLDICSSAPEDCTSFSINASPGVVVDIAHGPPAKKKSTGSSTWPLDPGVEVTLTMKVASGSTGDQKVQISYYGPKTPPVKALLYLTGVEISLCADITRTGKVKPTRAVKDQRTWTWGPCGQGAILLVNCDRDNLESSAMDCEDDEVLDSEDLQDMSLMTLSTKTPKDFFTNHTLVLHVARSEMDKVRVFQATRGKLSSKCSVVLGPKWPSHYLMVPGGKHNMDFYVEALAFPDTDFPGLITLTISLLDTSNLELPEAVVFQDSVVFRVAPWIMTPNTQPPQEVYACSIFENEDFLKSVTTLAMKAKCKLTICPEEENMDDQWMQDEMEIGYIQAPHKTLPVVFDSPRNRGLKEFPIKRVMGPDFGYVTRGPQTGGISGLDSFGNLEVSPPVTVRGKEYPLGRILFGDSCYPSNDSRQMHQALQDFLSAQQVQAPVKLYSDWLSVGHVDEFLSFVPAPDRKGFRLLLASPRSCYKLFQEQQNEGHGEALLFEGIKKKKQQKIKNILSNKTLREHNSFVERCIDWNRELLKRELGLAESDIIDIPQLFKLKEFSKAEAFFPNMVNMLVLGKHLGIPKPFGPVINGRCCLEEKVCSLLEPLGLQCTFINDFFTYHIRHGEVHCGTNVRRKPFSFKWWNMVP

`COc1cc(C(=O)N2C[C@H]3CC[C@@H]2[C@@H]3N)cc2nc(-c3ccc(C#N)n3C3CC3)n(C)c12` [I-81, 5-{5-[(1R,4R,7R)-7-Amino-2-azabicyclo[2.2.1]heptane-2-carbonyl]-7-methoxy-1-methyl-1H-1,3-benzodiazol-2-yl}-1-cyclopropyl-1H-pyrrole-2-carbonitrile]: the IC50 is less than 1 µM (read-out: hPAD4 AR IC50) and less than 1 µM under setting [1].
`COc1cc(C(=O)N2C[C@H]3CC[C@@H]2[C@@H]3N)cc2nc(-c3ccc(C#N)n3CC(F)(F)F)n(C)c12` [I-82, 5-{5-[(1R,4R,7R)-7-Amino-2-azabicyclo[2.2.1]heptane-2-carbonyl]-7-methoxy-1-methyl-1H-1,3-benzodiazol-2-yl}-1-(2,2,2-trifluoroethyl)-1H-pyrrole-2-carbonitrile]: the IC50 is less than 1 µM (read-out: hPAD4 AR IC50) and less than 1 µM under setting [1].
For `COc1cc(C(=O)N2C[C@H]3CC[C@@H]2[C@@H]3N)cc2nc(-c3ccc(C#N)n3C[C@@H](C)c3ccccc3)n(C)c12` [I-84], the IC50 runs as follows: (read-out: hPAD4 AR IC50) less than 1 µM; under setting [1], less than 1 µM.
Turning to `COc1cc(C(=O)N2C[C@H]3CC[C@@H]2[C@@H]3N)cc2nc(-c3ccc(C#N)n3C[C@H](C)c3ccccc3)n(C)c12` [I-85], the IC50 (read-out: hPAD4 AR IC50) is less than 1 µM and the IC50 under setting [1] is less than 1 µM.
`CCn1c(-c2cnc(-c3ccccc3)n2CC2CC2)nc2cc(C(=O)N3C[C@H]4CC[C@@H]3[C@@H]4N)cc(OC)c21` [I-86, (1R,4R,7R)-2-{2-[1-(Cyclopropylmethyl)-2-phenyl-1H-imidazol-5-yl]-1-ethyl-7-methoxy-1H-1,3-benzodiazole-5-carbonyl}-2-azabicyclo[2.2.1]heptan-7-amine]: the IC50 (read-out: hPAD4 AR IC50) is less than 1 µM and the IC50 under setting [1] is less than 1 µM.
Take `Cn1c(-c2cnc(-c3ccccc3)n2CC2CC2)nc2cc(C(=O)N3C[C@H]4CC[C@@H]3[C@@H]4N)cc(F)c21` [I-87]: the IC50 runs as follows: (read-out: hPAD4 AR IC50) less than 1 µM; under setting [1], less than 1 µM.
As for `COc1cccc(-c2nc3cc(C(=O)N4C[C@H]5CC[C@@H]4[C@@H]5N)cc(OC)c3n2C)n1` [I-88], the IC50 runs as follows: (read-out: hPAD4 AR IC50) more than 10 µM; under setting [1], 10 to 100 µM.
For `COc1cc(C(=O)N2C[C@H]3CC[C@@H]2[C@@H]3N)cc2nc(-c3ccc(C#N)n3C[C@H]3C[C@@](C)(OC)C3)n(C)c12` [I-89, 5-{5-[(1R,4R,7R)-7-Amino-2-azabicyclo[2.2.1]heptane-2-carbonyl]-7-methoxy-1-methyl-1H-1,3-benzodiazol-2-yl}-1-{[(1R,3S)-3-methoxy-3-methylcyclobutyl]methyl}-1H-pyrrole-2-carbonitrile] the same measures were less than 1 µM and less than 1 µM.
As to `CCc1c(-c2nc3cc(C(=O)N4C[C@H]5CC[C@@H]4[C@@H]5N)cc(OC)c3n2C)ccn1S(=O)(=O)c1ccc(C)cc1` [I-92], the IC50 reads like this: (read-out: hPAD4 AR IC50) less than 1 µM; under setting [1], less than 1 µM.
Turning to `COc1cc(C(=O)N2C[C@H]3CC[C@@H]2[C@@H]3N)cc2nc(-c3cccc(=O)n3CC3CC3)n(C)c12` [I-102, 6-{5-[(1R,4R,7R)-7-Amino-2-azabicyclo[2.2.1]heptane-2-carbonyl]-7-methoxy-1-methyl-1H-1,3-benzodiazol-2-yl}-1-(cyclopropylmethyl)-1,2-dihydropyridin-2-one], the IC50 is less than 1 µM (read-out: hPAD4 AR IC50) and less than 1 µM under setting [1].
On to `COc1cc(C(=O)N2C[C@H]3CC[C@@H]2[C@@H]3N)cc2nc(-c3cccnc3CC3CC3)n(C)c12` [I-105, (1R,4R,7R)-2-{2-[2-(Cyclopropylmethyl)pyridin-3-yl]-7-methoxy-1-methyl-1H-1,3-benzodiazole-5-carbonyl}-2-azabicyclo[2.2.1]heptan-7-amine], for which the IC50 reads like this: (read-out: hPAD4 AR IC50) less than 1 µM; under setting [1], less than 1 µM.
As to `COc1cc(C(=O)N2C[C@H]3CC[C@@H]2[C@@H]3N)cc2nc(-c3cccnc3CC3CC3C)n(C)c12` (some centres unmarked) [I-108], the IC50 is less than 1 µM (read-out: hPAD4 AR IC50) and less than 1 µM under setting [1].
As to `COc1cc(C(=O)N2C[C@H]3CC[C@@H]2[C@@H]3N)cc2nc(-c3ccc(Br)c(=O)n3CC3CC3)n(C)c12` [I-111], the IC50 (read-out: hPAD4 AR IC50) is less than 1 µM and the IC50 under setting [1] is less than 1 µM.
With `COc1cc(C(=O)N2C[C@H]3CC[C@@H]2[C@@H]3N)cc2nc(-c3ccc(C)c(=O)n3CC3CC3)n(C)c12` [I-112, 6-{5-[(1R,4R,7R)-7-Amino-2-azabicyclo[2.2.1]heptane-2-carbonyl]-7-methoxy-1-methyl-1H-1,3-benzodiazol-2-yl}-1-(cyclopropylmethyl)-3-methyl-1,2-dihydropyridin-2-one], the IC50 (read-out: hPAD4 AR IC50) was less than 1 µM and the IC50 under setting [1] was less than 1 µM.
As to `COc1cc(C(=O)N2C[C@H]3CC[C@@H]2[C@@H]3N)cc2nc(-c3ccc(C)nc3CC3CC3)n(C)c12` [I-115], the IC50 by setting is: (read-out: hPAD4 AR IC50) less than 1 µM; under setting [1], less than 1 µM.
With `COc1cc(C(=O)N2C[C@H]3CC[C@@H]2[C@@H]3N)cc2nc(-c3ccc(F)nc3CC3CC3)n(C)c12` [I-117, (1R,4R,7R)-2-{2-[2-(Cyclopropylmethyl)-6-fluoropyridin-3-yl]-7-methoxy-1-methyl-1H-1,3-benzodiazole-5-carbonyl}-2-azabicyclo[2.2.1]heptan-7-amine], the IC50 reads like this: (read-out: hPAD4 AR IC50) less than 1 µM; under setting [1], less than 1 µM.

The values above are taken from patent publication US11198681B2, “Heteroaryl inhibitors of PAD4” (Padlock Therapeutics, Inc., priority 2016, dated 2021).
